Test [1] concerns the target T1, PARP14 MD2 (Homo sapiens, UniProt Q460N5).
T1 sequence (Q460N5 1003-1190 limits assumed): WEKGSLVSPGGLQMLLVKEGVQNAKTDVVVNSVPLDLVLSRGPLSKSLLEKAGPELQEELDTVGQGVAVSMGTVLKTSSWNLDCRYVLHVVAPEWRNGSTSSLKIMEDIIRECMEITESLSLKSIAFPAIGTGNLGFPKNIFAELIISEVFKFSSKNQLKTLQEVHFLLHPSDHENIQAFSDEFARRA
Nature of the test: Biophysical KD determination (Bio-Layer Interferometry or Isothermal Titration Calorimetry). Type of test: binding. More on the design: PARP14 MD2 (second MD of PARP14). An excerpt:
(§1) Compounds were profiled for binding activity with PARP14 MD2 through a competitive (AlphaScreen™) binding assay measuring the displacement of ADP-ribose peptide from PARP14 MD2.[11a]
On the technique in general: Biolayer interferometry detects binding as a change in optical thickness at a sensor tip.

The target of test [2] is T1, PARP14 MD2. Briefly: AlphaScreen competitive binding assay, displacement of ADP-ribose peptide from PARP14 MD2. Set-up: PARP14 MD2 (second MD of PARP14). The conditions noted are these: AlphaScreen, PARP14 MD2, read-out: IC50.
From the text: as §1
(Bead proximity is the source of the signal in Alpha formats.)

Test [3] concerns the target T1, PARP14 MD2. Nature of the test: BioLayer Interferometry (BLI).

The text below walks through data of article PMC6008491, “Discovery of a novel allosteric inhibitor scaffold for polyadenosine-diphosphate-ribose polymerase 14 (PARP14) macrodomain 2” (Bioorganic & Medicinal Chemistry, 2018).

As usually defined, the Kd is the constant that tells how readily two partners part at equilibrium. As a reminder, the IC50 is the point on the concentration scale where inhibition reaches its midpoint.

Structures are written as SMILES. Read-outs that look alike come from different tables or passages of the source.

`N#Cc1ccc(F)c(CS(=O)(=O)Nc2ccccc2-c2cccc3c2[nH]c2ccccc23)c1` [compound 100, N-(2-(9H-Carbazol-1-yl)phenyl)-1-(5-cyano-2-fluorophenyl)methanesulfonamide]: the Kd on PARP14 MD2 [1] (Table 2, BLI or ITC) is 1300 nM. The IC50 on PARP14 MD2 [2] (Table 2) came out at 1200 nM. On PARP14 MD2 [1] (Table 2, BLI or ITC), `O=C(Cc1cnccn1)Nc1ccccc1-c1cccc2c1[nH]c1ccccc12` [compound 85, N-(2-(9H-Carbazol-1-yl)phenyl)-2-(pyrazin-2-yl)acetamide] came in with a dissociation constant Kd of 3900 nM. Further, the IC50 on PARP14 MD2 [2] (Table 2) worked out at 2100 ± 100 nM. On to `Cc1ccc(CC(=O)Nc2ccccc2-c2cccc3c2[nH]c2ccccc23)cn1` [compound 84, N-(2-(9H-Carbazol-1-yl)phenyl)-2-(6-methylpyridin-3-yl)acetamide], for which the affinity at PARP14 MD2 [1] (Table 2, BLI or ITC), expressed as Kd, was 2700 nM. The IC50 on PARP14 MD2 [2] (Table 2) worked out at 1000 nM. Turning to `CS(=O)(=O)Nc1cc(C#N)ccc1-c1cccc2c1[nH]c1ccccc12` [compound 56, N-(2-(9H-Carbazol-1-yl)-5-cyanophenyl)methanesulfonamide], binding at PARP14 MD2 [1] (Table 1, BLI or ITC) was characterised by a dissociation constant (Kd) of 5200 ± 1700 nM.

In the case of `CC(=O)Nc1cccc(C)c1-c1cccc2c1[nH]c1ccccc12` [compound 57, N-(2-(9H-Carbazol-1-yl)-3-methylphenyl)acetamide], the Kd at PARP14 MD2 [1] (Table 1, BLI or ITC) was determined as 1600 ± 700 nM. Further, at PARP14 MD2 [2] (Table 1), the IC50 turned out to be 1700 ± 100 nM.

Consider `N#Cc1cccc(CS(=O)(=O)Nc2ccccc2-c2cccc3c2[nH]c2ccccc23)c1` [compound 108, N-(2-(9H-Carbazol-1-yl)phenyl)-1-(3-cyanophenyl)methanesulfonamide], for which the equilibrium dissociation constant (Kd) is 550 nM on PARP14 MD2 [1] (Table 2, BLI or ITC); 550 nM at PARP14 MD2 [3] (read-out: KD (BLI)); 550 nM at PARP14 MD2 [3] (read-out: calculated KD (BLI)). On PARP14 MD2 [2] (Table 2), the half-inhibitory concentration (IC50) was determined as 660 ± 30 nM.

For the molecule `CN(C)CC(=O)Nc1ccccc1-c1cccc2c1[nH]c1ccccc12` [compound 65, N-(2-(9H-carbazol-1-yl)phenyl)-2-(dimethylamino)acetamide], on PARP14 MD2 [2] (Table 1), the IC50 turned out to be 5500 ± 600 nM. As for `COc1ccc(CC(=O)Nc2ccccc2-c2cccc3c2[nH]c2ccccc23)cc1OC` [compound 98, N-(2-(9H-Carbazol-1-yl)phenyl)-2-(3,4-dimethoxyphenyl)acetamide], the IC50 on PARP14 MD2 [2] (Table 2) turned out to be 4300 ± 300 nM. Turning to `COc1cccc(CC(=O)Nc2ccccc2-c2cccc3c2[nH]c2ccccc23)c1` [compound 103, N-(2-(9H-Carbazol-1-yl)phenyl)-2-(3-methoxyphenyl)acetamide], at PARP14 MD2 [2] (Table 2), the half-inhibitory concentration (IC50) was 6600 ± 500 nM.

Turning to `O=C(Cc1cccnc1)Nc1ccccc1-c1cccc2c1[nH]c1ccccc12` [compound 83, N-(2-(9H-Carbazol-1-yl)phenyl)-2-(pyridin-3-yl)acetamide], the affinity at PARP14 MD2 [1] (Table 2, BLI or ITC), expressed as Kd, was 1500 nM. Also, the IC50 at PARP14 MD2 [2] (Table 2) stood at 1100 nM.

Regarding `O=S(=O)(Cc1cccc(F)c1)Nc1ccccc1-c1cccc2c1[nH]c1ccccc12` [compound 105, N-(2-(9H-Carbazol-1-yl)phenyl)-1-(3-fluorophenyl)methanesulfonamide], the IC50 on PARP14 MD2 [2] (Table 2) turned out to be 1400 ± 100 nM.

With `CC(C)(C)NC(=O)Nc1ccccc1-c1cccc2c1[nH]c1ccccc12` [compound 49, 1-[2-(9H-Carbazol-1-yl)phenyl]-3-(tert-butyl)urea], on PARP14 MD2 [2] (Table 1), the concentration for half-maximal inhibition (IC50) was 7200 ± 1400 nM.
